# Experimental data from US8017612B2, “Piperazine compound and use thereof as a HCV polymerase inhibitor” (priority 2006, dated 2011).
# Tests used:
# [1] = molecular target: T1, HCV polymerase (NS5B) type 1b (Hepatitis C virus genotype 1b, UniProt P26663); assay: Assay of enzyme (HCV polymerase) inhibitory activity, type 1b enzyme; type: biochemical, HCV BK strain (type 1b)
# T1 construct: a region encoding NS5B (J Virol 1991 March, 65(3), 1105-13, 544 amino acids after deletion of 47 amino acids on the C-terminal); 6xHis (C); made in house; host or cells: Escherichia coli
# In short: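 Polymerase activity was followed as radiolabelled UTP incorporation by E. coli-expressed, His-tagged NS5B of HCV type 1b lacking its last 47 residues. Conditions: 2 μM UTP, 50 μM other NTPs, Mg2+ buffer at pH 7.5, 25 °C for 60 min. Inhibition relative to compound-free reactions gave IC50.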
# [2] = molecular target: T2, HCV polymerase (NS5B) type 1a (Hepatitis C virus genotype 1a, UniProt P26664); assay: Assay of enzyme (HCV polymerase) inhibitory activity, type 1a enzyme; type: biochemical, HCV type 1a (cloned from the blood of patients)
# T2 construct: made in house; host or cells: Escherichia coli (by the 'similar method' of the 1b enzyme)
# In short: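 IC50 values derive from radioactivity of newly synthesized RNA with versus without test compound. The enzyme was C-terminally truncated type 1a NS5B, 1.5 μg/ml, run 60 min at 25° C with 3H-UTP-labelled nucleotides.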
# [3] = HCV polymerase inhibitory activity IC50, 1b, type 1b enzyme
# [4] = HCV polymerase inhibitory activity IC50, 1a, type 1a enzyme
# [5] = HCV polymerase inhibitory activity (IC50), 1b, type 1b enzyme 0.5 μg/ml, 25° C., 60 min
# [6] = HCV polymerase inhibitory activity (IC50), 1a, type 1a enzyme 1.5 μg/ml, 25° C., 60 min
compound,measurement,setting,value
"CC(=O)N1CCN(S(=O)(=O)c2ccc(OC(F)(F)F)cc2)[C@@H](C(=O)NCCCc2cccc(O)c2)C1 [Example 716, (R)-4-acetyl-1-(4-trifluoromethoxy-benzenesulfonyl)-piperazine-2-carboxylic acid [3-(3-hydroxy-phenyl)-propyl]-amide]",IC50,[1]; [3],> 1000 nM
same,IC50,[2]; [4],> 1000 nM
"O=C(NCc1ccc(OC(F)(F)F)cc1)[C@H]1CN(c2cnc3cnccc3n2)CCN1S(=O)(=O)c1ccc(C(F)(F)F)cc1 [Example 757, (R)-4-pyrido[3,4-b]pyrazin-2-yl-1-(4-trifluoromethyl-benzenesulfonyl)-piperazine-2-carboxylic acid 4-trifluoromethoxy-benzylamide]",IC50,[1]; [3],< 100 nM
same,IC50,[2]; [4],< 100 nM
"CC(=O)N1CCN(S(=O)(=O)c2ccc(O)cc2)[C@@H](C(=O)NCc2ccc(C(C)C)cc2)C1 [Example 251, (R)-4-acetyl-1-(4-hydroxy-benzenesulfonyl)-piperazine-2-carboxylic acid 4-isopropyl-benzylamide]",IC50,[1]; [5],> 1000 nM
same,IC50,[2]; [6],> 1000 nM
"O=C(NCc1ccc(OC(F)(F)F)cc1)[C@H]1CN(c2nc3nc(C4CC4)[nH]c(=O)c3s2)CCN1S(=O)(=O)c1ccc(OC(F)(F)F)cc1 [Example 1108, (R)-4-(5-cyclopropyl-7-oxo-6,7-dihydro-thiazolo[4,5-d]pyrimidin-2-yl)-1-(4-trifluoromethoxy-benzenesulfonyl)-piperazine-2-carboxylic acid 4-trifluoromethoxy-benzylamide]",IC50,[1]; [3],< 100 nM
same,IC50,[2]; [4],100 to 1000 nM
"CCC(F)(F)c1ccc(CNC(=O)[C@H]2CN(c3nc(C)c(C(=O)O)s3)CCN2S(=O)(=O)c2ccc(OC(F)(F)F)cc2)cc1 [Example 448, 2-[(R)-3-[4-(1,1-difluoro-propyl)-benzylcarbamoyl]-4-(4-trifluoromethoxy-benzenesulfonyl)-piperazin-1-yl]-4-methyl-thiazole-5-carboxylic acid]",IC50,[1]; [5],< 100 nM
same,IC50,[2]; [6],< 100 nM
"CC(=O)N1CCN(S(=O)(=O)C2CCCCC2)C(C(=O)NCc2ccc(C(F)(F)F)cc2)C1 (stereo not shown) [Example 196, 4-acetyl-1-cyclohexanesulfonyl-piperazine-2-carboxylic acid 4-trifluoromethyl-benzylamide]",IC50,[1]; [5],> 1000 nM
same,IC50,[2]; [6],> 1000 nM
"O=C(NCc1ccc(OC(F)(F)F)cc1)[C@H]1CN(c2nc3nc(C(F)(F)F)ncc3s2)CCN1S(=O)(=O)c1ccc(C(F)(F)F)cc1 [Example 981, (R)-1-(4-trifluoromethyl-benzenesulfonyl)-4-(5-trifluoromethyl-thiazolo[4,5-d]pyrimidin-2-yl)-piperazine-2-carboxylic acid 4-trifluoromethoxy-benzylamide]",IC50,[1]; [3],< 100 nM
same,IC50,[2]; [4],< 100 nM
"CC(=O)N1CCN(S(=O)(=O)c2ccc(C(C)C)cc2)C(C(=O)NCc2ccc(OC(F)(F)F)cc2)C1 (stereo not shown) [Example 53, 4-acetyl-1-(4-isopropyl-benzenesulfonyl)-piperazine-2-carboxylic acid 4-trifluoromethoxy-benzylamide]",IC50,[1]; [5],100 to 1000 nM
same,IC50,[2]; [6],100 to 1000 nM
"CCC(F)(F)c1ccc(CNC(=O)[C@H]2CN(C(=O)n3nc(C)nc3N)CCN2S(=O)(=O)c2ccc(OC(F)(F)F)cc2)cc1 [Example 568, (R)-4-(5-amino-3-methyl-[1,2,4]triazole-1-carbonyl)-1-(4-trifluoromethoxy-benzenesulfonyl)-piperazine-2-carboxylic acid 4-(1,1-difluoro-propyl)-benzylamide]",IC50,[1]; [5],> 1000 nM
same,IC50,[2]; [6],> 1000 nM
"CCCc1ccc(CNC(=O)[C@H]2CN(c3cc(Cl)ncn3)CCN2S(=O)(=O)c2ccc(OC(F)(F)F)cc2)cc1 [Example 571, (R)-4-(6-chloro-pyrimidin-4-yl)-1-(4-trifluoromethoxy-benzenesulfonyl)-piperazine-2-carboxylic acid 4-propyl-benzylamide]",IC50,[1]; [5],< 100 nM
same,IC50,[2]; [6],< 100 nM
"COCCc1ncc2sc(N3CCN(S(=O)(=O)c4ccc(OC(F)(F)F)cc4)[C@@H](C(=O)NCc4ccc(OC(F)(F)F)cc4)C3)nc2n1 [Example 1070, (R)-4-[5-(2-methoxy-ethyl)-thiazolo[4,5-d]pyrimidin-2-yl]-1-(4-trifluoromethoxy-benzenesulfonyl)-piperazine-2-carboxylic acid 4-trifluoromethoxy-benzylamide]",IC50,[1]; [3],< 100 nM
same,IC50,[2]; [4],< 100 nM
"CCCc1nc(C)c(CNC(=O)[C@H]2CN(c3nc4cn[nH]c(=O)c4s3)CCN2S(=O)(=O)c2ccc(OC(F)(F)F)cc2)s1 [Example 909, (R)-4-(7-oxo-6,7-dihydro-thiazolo[4,5-d]pyridazin-2-yl)-1-(4-trifluoromethoxy-benzenesulfonyl)-piperazine-2-carboxylic acid (4-methyl-2-propyl-thiazol-5-ylmethyl)-amide]",IC50,[1]; [3],< 100 nM
same,IC50,[2]; [4],100 to 1000 nM
"COC(=O)c1ccc(S(=O)(=O)N2CCN(C(C)=O)CC2C(=O)NCc2ccc(C(F)(F)F)cc2)cc1 (stereo not shown) [Example 106, 4-[4-acetyl-2-(4-trifluoromethyl-benzylcarbamoyl)-piperazine-1-sulfonyl]-benzoic acid methyl ester]",IC50,[1]; [5],> 1000 nM
same,IC50,[2]; [6],> 1000 nM
"O=C(NCc1ccc(OC(F)F)c(F)c1)[C@H]1CN(c2nc3nc(C4CC4)[nH]c(=O)c3s2)CCN1S(=O)(=O)c1ccc(C(F)(F)F)cc1 [Example 1114, (R)-4-(5-cyclopropyl-7-oxo-6,7-dihydro-thiazolo[4,5-d]pyrimidin-2-yl)-1-(4-trifluoromethyl-benzenesulfonyl)-piperazine-2-carboxylic acid 4-difluoromethoxy-3-fluoro-benzylamide]",IC50,[1]; [3],< 100 nM
same,IC50,[2]; [4],< 100 nM
"CCCc1ccc(CNC(=O)[C@H]2CN(c3ccc(C(=O)O)nn3)CCN2S(=O)(=O)c2ccc(OC(F)(F)F)cc2)cc1 [Example 417, 6-[(R)-3-(4-propyl-benzylcarbamoyl)-4-(4-trifluoromethoxy-benzenesulfonyl)-piperazin-1-yl]-pyridazine-3-carboxylic acid]",IC50,[1]; [5],< 100 nM
same,IC50,[2]; [6],< 100 nM
"O=C(O)c1cnc(N2CCN(S(=O)(=O)c3ccc(N4CCCC4)cc3)[C@@H](C(=O)NCc3ccc(OC(F)(F)F)cc3)C2)cn1 [Example 788, (R)-4-(4-pyrrolidin-1-yl-benzenesulfonyl)-3-(4-trifluoromethoxy-benzylcarbamoyl)-3,4,5,6-tetrahydro-2H-[1,2′]bipyrazinyl-5′-carboxylic acid]",IC50,[1]; [3],< 100 nM
same,IC50,[2]; [4],< 100 nM
"O=C(NCc1ccc(OC(F)F)cc1)[C@H]1CN(c2nc3ncncc3s2)CCN1S(=O)(=O)c1ccc(OC(F)F)cc1 [Example 956, (R)-1-(4-difluoromethoxy-benzenesulfonyl)-4-thiazolo[4,5-d]pyrimidin-2-yl-piperazine-2-carboxylic acid 4-difluoromethoxy-benzylamide]",IC50,[1]; [3],< 100 nM
same,IC50,[2]; [4],< 100 nM
"COc1ccc(CNC(=O)C2CN(C(C)=O)CCN2S(=O)(=O)c2ccc(C(C)C)cc2)c(OC)c1 (stereo not shown) [Example 197, 4-acetyl-1-(4-isopropyl-benzenesulfonyl)-piperazine-2-carboxylic acid 2,4-dimethoxy-benzylamide]",IC50,[1]; [5],> 1000 nM
same,IC50,[2]; [6],> 1000 nM
"CCCc1ccc(CNC(=O)[C@H]2CN(c3cnc(C(=O)O)cn3)CCN2S(=O)(=O)c2ccc3c(c2)CCCCC3)cc1 [Example 435, (R)-3-(4-propyl-benzylcarbamoyl)-4-(6,7,8,9-tetrahydro-5H-benzenecycloheptene-2-sulfonyl)-3,4,5,6-tetrahydro-2H-[1,2′]bipyrazinyl-5′-carboxylic acid]",IC50,[1]; [5],< 100 nM
same,IC50,[2]; [6],< 100 nM
"CC(C)c1ccc(CNC(=O)[C@H]2CN(C(N)=S)CCN2S(=O)(=O)c2ccc(C(F)(F)F)cc2)cc1 [Example 4, (R)-4-thiocarbamoyl-1-(4-trifluoromethyl-benzenesulfonyl)-piperazine-2-carboxylic acid 4-isopropyl-benzylamide]",IC50,[1]; [5],100 to 1000 nM
same,IC50,[2]; [6],100 to 1000 nM
"CCCc1ccc(CNC(=O)[C@H]2CN(c3cnc4cncc(C(=O)O)c4n3)CCN2S(=O)(=O)c2ccc(Cl)s2)cc1 [Example 860, 2-[(R)-4-(5-chloro-thiophene-2-sulfonyl)-3-(4-propyl-benzylcarbamoyl)-piperazin-1-yl]-pyrido[3,4-b]pyrazine-8-carboxylic acid]",IC50,[1]; [3],< 100 nM
same,IC50,[2]; [4],< 100 nM
"COc1ccccc1CNC(=O)C1CN(C(C)=O)CCN1S(=O)(=O)c1ccc(C(C)C)cc1 (stereo not shown) [Example 50, 4-acetyl-1-(4-isopropyl-benzenesulfonyl)-piperazine-2-carboxylic acid 2-methoxy-benzylamide]",IC50,[1]; [5],> 1000 nM
same,IC50,[2]; [6],> 1000 nM
"CN1CCN(CC(=O)N2CCN(S(=O)(=O)c3ccc(I)cc3)[C@@H](C(=O)NCc3ccc(N(C)C)cc3)C2)CC1 [Example 346, 1-(4-iodo-benzenesulfonyl)-4-[2-(4-methyl-piperazin-1-yl)-acetyl]-piperazine-2-carboxylic acid 4-dimethylamino-benzylamide]",IC50,[1]; [5],> 1000 nM
same,IC50,[2]; [6],> 1000 nM
